{"source": "patent US12496308B2", "key": {"[1]": {"tested_on": "mouse water toxicity model for cerebral edema", "assay": "Mouse water toxicity model - brain volume by MRI", "format": "in vivo", "quoted_text": "Mouse Water Toxicity Model—Brain Volume by Magnetic Resonance Imaging (MRI): MRI is used to measure changes in brain volume in response to water shock, using the water toxicity model. As described for the survival and brain water content studies above, mice are injected, IP, with a water bolus alone or water bolus and test compound at 0.76 mg/kg, and changes in brain volume as detected by MRI are monitored. […] High resolution T2-weighted sagittal scans (resolution=0.1 mm×0.1 mm×0.7 mm) of the mouse head are obtained prior to water injection, 5.67 min post water injection, and then every 5.2 minutes until the animal expires from the water loading. Each scan contains twenty-five 0.7 mm contiguous imaging slices of which 14-15 slices contain a portion of the brain. The cross sectional area of the brain in each imaging slice is measured by manual region-of-interest selection using ImageJ. Brain volumes are then calculated for each scan by summing the individual cross sectional brain areas and multiplying by the slice thickness (0.7 mm)."}, "[2]": {"tested_on": "mouse water toxicity model", "assay": "Mouse water toxicity model - survival curves", "details": "0.76 mg/kg, versus placebo", "quoted_text": "Mouse Water Toxicity Model—Survival Curves: The in vivo efficacies of the compounds are tested using the mouse water toxicity model, where a mouse is injected with water at 20% of its body weight. […] The resulting euvolemic hyponatremia rapidly leads to CE, making this a practical model to test an inhibitor of the CNS aquaporin, AQP4b.\nThe ability of mice to survive H2O toxicity is determined in three experiments using 10-12 mice each (16-19 weak old male/female). Deionized water is prepared for injection with either 0.39 mg/kg phenylbenzamide (placebo) or 0.76 mg/kg with test compound."}, "[3]": {"assay": "Stability and pH of aqueous solutions", "format": "physicochemical", "details": "for longer term stability of solutions: solutions at RT", "protocol": "Water is added and the mixture is stirred or sonicated. Yields 10 mg/ml to 20 mg/ml solutions stable for at least 24 hrs."}, "[4]": {"tested_on": "middle cerebral artery occlusion (MCAo) model", "assay": "MCAo stroke model - cerebral edema (hemispheric brain volume by MRI)", "quoted_text": "To mimic this injury in mice, an intraluminal monofilament model of middle cerebral artery occlusion (MCAo) is used. Occlusion is achieved by inserting a surgical filament into the external carotid artery (ECA) and threading it forward into the internal carotid artery (ICA) until the tip blocks the origin of the MCA. […] This technique is used to study a temporary occlusion in which the MCA is blocked for one hour. The filament is then removed allowing reperfusion to occur for 24 hours before the animal's brain is imaged using T2-weighted scans in a 9.4T Bruker MRI scanner at the Case Center for Imaging Research (FIG. 7). […] Solid line highlights the region of infarct in the MCAo brain.\nCerebral Edema—Mice are given saline or treated with 2-{[3,5-bis(trifluoromethyl)phenyl]carbamoyl}-4-chlorophenyl phosphate disodium salt (Compound 5) by multi-dosing at 5 mg/kg i.p. every three hours (n=8 per treatment). […] Ipsilateral and contralateral hemispheric volume is measured from the T2-weighted MR images of mice 24 hours post-icus. Relative change in hemispheric volume is calculated as a percent of the difference between ipsilateral brain volume (Vi) and contralateral brain volume (Vc) relative to the contralateral brain volume (Percent Change in Hemispheric Brain Volume=((Vi−Vc)/Vc)×100%."}, "[5]": {"assay": "Solid state stability (hydrolysis to the phenol) at room temperature"}, "[6]": {"tested_on": "middle cerebral artery occlusion (MCAo) model", "assay": "MCAo stroke model - neurological outcome", "details": "mouse, in vivo", "quoted_text": "To mimic this injury in mice, an intraluminal monofilament model of middle cerebral artery occlusion (MCAo) is used. Occlusion is achieved by inserting a surgical filament into the external carotid artery (ECA) and threading it forward into the internal carotid artery (ICA) until the tip blocks the origin of the MCA. […] This technique is used to study a temporary occlusion in which the MCA is blocked for one hour. The filament is then removed allowing reperfusion to occur for 24 hours before the animal's brain is imaged using T2-weighted scans in a 9.4T Bruker MRI scanner at the Case Center for Imaging Research (FIG. 7).\nNeurological Outcome—In the same experiment as above, animals are scored for neurological outcome on a simple 5 point scale described in Manley, G. T. et al., Aquaporin-4 Deletion in Mice Reduces Brain Edema After Acute Water Intoxication and Ischemic Stroke, Nature Medicine, 6, 159-163 (2000)."}, "[7]": {"assay": "Bioconversion of prodrug salt in mouse plasma in vitro", "format": "in vitro ADME", "details": "20° C."}}, "note": "Where a name gives a salt, the structure may show the parent alone.", "data": [{"smiles": "O=C(Nc1cc(C(F)(F)F)cc(C(F)(F)F)c1)c1cc(Cl)ccc1O", "note": "[Compound 1]", "values": [{"measurement": "extent of CE during the period of observation", "setting": "[1]; 0.76 mg/kg", "value": "reduced"}, {"measurement": "rate of CE development", "setting": "[1]; 0.76 mg/kg IP, fit to single exponential model", "value": 0.032, "unit": "min⁻¹"}, {"measurement": "reduction of rate of CE development", "setting": "[1]; 0.76 mg/kg, versus no drug", "value": 2.5, "unit": "fold"}, {"measurement": "Cerebral Edema Rate by MRI", "setting": "[1]; n=14 mice", "value": 0.032, "unit": "min⁻¹"}, {"measurement": "improvement of time to 50% survival", "setting": "[2]", "value": "roughly 52 min"}, {"measurement": "improvement of percent survival", "setting": "[2]; n=34", "value": 3.2, "unit": "fold"}]}, {"smiles": "O=C(Nc1cc(C(F)(F)F)cc(C(F)(F)F)c1)c1cc(Cl)ccc1OP(=O)([O-])[O-].[Na+].[Na+]", "note": "[Compound 5]", "values": [{"measurement": "longer term stability of solutions", "setting": "[3]", "value": "about 1 % per day"}, {"measurement": "relative change in ipsilateral brain volume", "setting": "[4]; 24 hours after MCAo, 5 mg/kg i.p. every three hours, n=8, ±SEM", "value": "4.2±1.7", "unit": "%"}, {"measurement": "reduction in brain swelling after MCAo", "setting": "[4]; versus saline controls", "value": 3.2, "unit": "fold"}, {"measurement": "hydrolysis in the solid state", "setting": "[5]", "value": "about 10 % per day"}, {"measurement": "progression to severe paralysis or death", "setting": "[6]", "value": "did not progress into a state of severe paralysis or death"}]}, {"smiles": "O=C(Nc1cc(C(F)(F)F)cc(C(F)(F)F)c1)c1cc(Cl)ccc1OP(=O)(O)O", "note": "[Formula I]", "values": [{"measurement": "pH of solution", "setting": "[3]; 5 mg/mL in 1% Na2HPO4", "value": "about 7"}, {"measurement": "pH of solution", "setting": "[3]; 5 mg/mL in 2% Na2HPO4", "value": 7.4}, {"measurement": "stability at RT", "setting": "[5]; solid sample kept at RT", "value": "stable at RT for a week or more"}]}, {"smiles": "O=C(Nc1cc(C(F)(F)F)cc(C(F)(F)F)c1)c1cc(Cl)ccc1OP(=O)(O)O", "note": "[bis ethanolamine salt]", "values": [{"measurement": "Final pH of solutions", "setting": "[3]; in water", "value": "about 7.5"}, {"measurement": "longer term stability of solutions", "setting": "[3]", "value": "about 1 % per day"}, {"measurement": "time sufficient to render prodrug salt undetectable", "setting": "[7]", "value": "Less than 5 minutes"}, {"measurement": "hydrolysis in the solid state", "setting": "[5]", "value": "about 10 % per day"}]}, {"smiles": "O=C(Nc1cc(C(F)(F)F)cc(C(F)(F)F)c1)c1cc(Cl)ccc1OP(=O)(O)O", "note": "[mono ethanolamine salt]", "values": [{"measurement": "hydrolysis", "setting": "[5]; after 5 days at RT", "value": "about 10%"}]}, {"smiles": "O=C(Nc1cc(C(F)(F)F)cc(C(F)(F)F)c1)c1cc(Cl)ccc1OP(=O)([O-])O.[Na+]", "note": "[mono sodium salt]", "values": [{"measurement": "longer term stability of solutions", "setting": "[3]", "value": "about 1 % per day"}, {"measurement": "hydrolysis in the solid state", "setting": "[5]", "value": "about 10 % per day"}]}]}
